{
  "source": "patent US20030129189A1",
  "about": "“Tumor necrosis factor-gamma” (priority 1994, published 2003)",
  "key": {"NF-kappaB in U937 cells": {"test_system": "NF-kappaB in U937 cells", "assay": "NF-kappaB-SEAP reporter assay", "type": "cell-based", "conditions": "72 hr", "procedure": "[Bovine pulmonary artery endothelial cells were incubated with various concentrations of TNF-gamma for 48 hours. The apoptosis was assessed by nuclear staining with Hoechst 33342 fluorescence dye (10 mg/ml).] […] [U937 cells were transfected using lipofectamine (following manufacturer's instruction) with 0.2 mg of reporter plasmid (NF-kappaB-SEAP). The transfected U937 cells were collected and added to the 96-well plate ([…]/well) with various concentrated of TNF-gamma. After Incubation at 37° C. for 72 hr, the NF-kappaB activity was measured with luminometer at absorbance of 450 nm.]\nConsistent with the Northern blot analysis, peripheral blood mononuclear cells (PBMC) and human umbilical vein endothelial cells (HUVEC) express TNF-gamma on the cell surface by immunostaining with antibody to TNF-gamma. […] The cells were incubated for 30 min at 40° C. with antibody (10 mg/ml ) to TNF-gamma to detected expression of TNF-gamma on cell surface, with DR3-Fc or LTbR-Fc (10 mg/ml) for receptor and ligand binding in the binding buffer (HBSS containing 10% BSA, 20 mM HEPES, pH 7.2, 0.02% NaN3). […] Fluorescence was analyzed by a FACscan flow cytometer (Becton Dickinson, Mountain View, Calif.).] […] After incubation at 37° C. for 72 hr, the NF-kB activity was measured with luminometer at absorbance of 450 nm.] […]"}, "I-kappaBa in U-937 cells": {"test_system": "I-kappaBa in U-937 cells", "assay": "I-kappaBa degradation (Western blot)", "type": "cell-based", "conditions": "0.1-1.0 μg/ml, 12 hours", "procedure": "These experiments were elaborated by determining a degradation profile for I-kappaBa in U-937 cells in response to treatment with TNF-gamma. A time course of I-kappaBa degradation was determined by Western blot analysis, a technique that is well-known by one of ordinary skill in the art and has been described by Singh and Aggarwal (J. Biol. Chem. 270:24995-25000 (1995))."}, "[1]": {"test_system": "chorioallantoic membrane (CAM)", "assay": "Chicken embryonic chorioallantoic membrane (CAM) angiogenesis assay", "type": "in vivo", "conditions": "250 ng bacterially-produced TNF-gamma mixed with FGF-2 (100 ng) or VEGF (250 ng)", "procedure": "The CAM assay was carried out essentially as described by Nguyen and colleagues (Microvasc. Res. 47:31-40 (1994)) and Iruela-Arispe and Dvorak (Thromb. Haemost. 78:672-677 (1997)). The method is based on the growth of new capillary vessels into a collagen gel pellet placed directly on the chorioallantoic membrane (CAM). Angiogenic factors such as […], FGF-2 (100 ng), VEGF (250 ng), or bFGF (10, 500, and 1000 ng) were embedded in collagen gel pellets and placed in contact with the CAM. Quantification of angiogenesis in the gels was carried out 24 hours after the placement of the gel pellets by using a Nikon fluorescence microscope. The images were transferred to a Power PC 100 AV, using a CCD Sony camera. Fluorescence intensity was evaluated with NH Image 1.61 software. Fluorescence intensity for the positive controls (which contained an angiogenic factor alone) was considered as the maximum angiogenic response, and set, arbitrarily, at 100. Due to the variability of the assay, inhibition greater than 20% was considered significant.\nAs an experimental determination of the effect of TNF-gamma on the FGF-2- or VEGF-induced angiogenesis, bacterially-produced TNF-gamma (250 ng) was mixed with either FGF-2 (100 ng) or VEGF (250 ng) and embedded in collagen gel pellets. The pellets were then placed in contact with the CAM as described above."}, "Raji": {"test_system": "Raji", "assay": "TNF-gamma activity on Raji cells", "type": "cell-based", "design": "key: The numbers of “+” indicate the relative level of activities.; ++: The numbers of “+” indicate the relative level of activities.; +++: The numbers of “+” indicate the relative level of activities.; “−” indicates no detected activity at the concentration range tested", "conditions": "human Burkitt's lymphoma", "procedure": "The adherent target cells were prepared from confluent cultures by trypsinization in PBS, and non-adherent target cells were harvested from stationary cultures and washed once with medium. Target cells were suspended at 3×10^5 cells/ml in medium containing 10% FCS. 0.1 ml aliquots were dispensed into 96-well flat-bottomed microtiter plates containing 0.1 ml serially diluted test samples of cells (WEHI 164 and L929). Incubation was continued for 70 hours. TNF-alpha, TNF-beta and bacterially-produced TNF-gamma were added at a 0.5 μg/ml concentration. The cytotoxicity and proliferation activity was quantified using an MTS assay performed by the addition of 20 μl of MTS and phenazine methosulfate (PMS) solution to each well. After a three hour incubation, the OD at 492 nm was measured by an ELISA plate reader. The OD492 is proportional to the number of viable cells in the wells. The percent of cytotoxicity was calculated as follows: […]. The photographs were taken after 72 hours."}},
  "data": [
    {"substance": "TNF-gamma: new member of the tumor necrosis factor family; the term refers to TNF-gamma-alpha and/or TNF-gamma-beta", "values": [
      {"measurement": "NF-kappaB activation", "setting": "NF-kappaB in U937 cells", "value": "induces nuclear factor-kappaB (NF-kappaB)"},
      {"measurement": "I-kappaBa degradation", "setting": "I-kappaBa in U-937 cells", "value": "completely degraded"},
      {"measurement": "new capillary growth into collagen gels (FGF-2- or VEGF-induced angiogenesis)", "setting": "[1]", "value": "markedly inhibited new capillary growth into collagen gels"},
      {"measurement": "Adhesion", "setting": "Raji", "value": "−−"},
      {"measurement": "Differentiation", "setting": "Raji", "value": "−−"},
      {"measurement": "Proliferation", "setting": "Raji", "value": "−"}
    ]}
  ]
}
